Measured values as given in patent publication US11186588B2 (AYUMI PHARMACEUTICAL CORPORATION, priority 2017, dated 2021).

Tests used:
[1] = target: Recombinant BRD4 (44-168) protein (Homo sapiens (Human), UniProt O60885); assay: BRD4-H4KAc4 binding assay (amplified luminescence proximity homogeneous assay, AlphaScreen); conditions: 10 uM
Experimental: In order to evaluate BRD4 inhibitory activity of the present compounds, BRD4-H4KAc4 binding assay was carried out by an amplified luminescence proximity homogeneous assay. The specific method is described below.
H4KAc4 peptide (available from Toray Research Center, Inc., sequence SGRGK(Ac)GGK(Ac)GLGK(Ac)GGAK(Ac)RHR-K(Biotin)-NH2) was dissolved in 1×Assay buffer to prepare 1 mM H4KAc4 peptide stock solution.
N-terminal His tag/C-terminal FLAG tag-fused type Recombinant BRD4 (44-168) protein (available from Active Motif, Cat No. 31380) was diluted with 1×Assay buffer to 1,250-fold to prepare 250 nM BRD4 solution.
1% DMSO solution (control) and 2 μL of each compound solution in each concentration were added to each well of AlphaPlate-384 (from PerkinElmer, Cat No. 6008350). Next, 2 μL of 250 nM BRD4 solution was added to each well of AlphaPlate-384. Further, 2 μL of 250 nM H4KAc4 peptide solution was added to each well of AlphaPlate-384. After addition of the 250 nM H4KAc4 peptide solution, the mixture was allowed to stand at room temperature under light shielding for 60 minutes, and 4 μL of AlphaScreen beads were added to each well of AlphaPlate-384. After addition of the AlphaScreen beads, the mixture was allowed to stand at room temperature under light shielding for 60 minutes, emission at 520-620 nm upon excitation at 680 nm was detected by EnVision multilabel counter (from PerkinElmer), and binding of BRD4 and H4KAc4 was detected. Incidentally, the evaluation of each compound was carried out in duplicate (2 well per 1 compound).
(§1) The BRD4 inhibition rate (%) was calculated by the following equation using Microsoft EXCEL 2010. BRD4 inhibition rate (%)=100−{(luminescence intensity average value of each compound added well)−(average value of luminescence intensity of blank well))/(average value of luminescence intensity of control well)−(average value of luminescence intensity of blank well)}×100

NF-κB = NF-κB reporter gene assay (TNF-α stimulated A549/NF-κB-luc cells); format: cell-based; conditions: Homo sapiens, TNF-α stimulation
Experimental: In order to evaluate NF-κB inhibitory activity of the present compounds, NF-κB reporter gene assay was carried out. The specific method is described below.
Gene recombinant human TNF-α (available from R&D systems, Cat No. 210-TA) was dissolved in D-PBS(−) (available from Wako Pure Chemical Industries, Ltd., Cat No. 293-72601) to prepare 100 μg/mL of TNF-α solution stock solution. 100 μg/mL of the TNF-α solution stock solution was diluted with the culture medium to prepare 10 ng/mL of TNF-α solution.
A549/NF-κB-luc cells (available from Panomics, Cat No. LR0051) were prepared at 375,000 cells/mL in the culture medium. The 375,000 cells/mL A549/NF-κB-luc cell suspension was seeded at 80 μL each on a white 96-well plate (available from Greiner, Cat No. 655073). One hour after seeding the cells, 10 μL of 2% DMSO solution (control) and each compound solution in each concentration were added to each well of the 96-well plate. One hour after the addition of each compound solution, 10 ng/mL of the TNF-α solution (10 μL) was added to each well of the 96-well plate. Three hours after the addition of 10 ng/mL of the TNF-α solution, 100 μL of Steady-Glo reagent (available from Promega, Cat No. E2510) was added to each well of the 96-well plate. After 30 to 90 minutes of the addition of the Steady-Glo reagent, the luminescence intensity of each well was detected by EnVision multilabel counter (available from PerkinElmer).
as §1, with “NF-κB” for “The BRD4”, “NF-κB” for “BRD4”, “well)}×100 In addition, IC50 values were calculated from the calculated NF-κB inhibition rate (%) using curve fitting software XLfit (available from IDBS).” for “well)}×100”

Compound | inhibition at 10 µM [1] | IC50 (NF-κB)
Cc1sc2c(c1C)C(c1ccc(Cl)cc1)=NN(Cc1ccc(C(C)(C)C)cc1)c1nnc(C)n1-2 [Example 7, 6-(4-(tert-butyl)benzyl)-4-(4-chlorophenyl)-2,3,9-trimethyl-6H-thieno[2,3-e][1,2,4]triazolo[3,4-c][1,2,4]triazepine] | 99.8% | 735 nM
Cc1ccccc1CN1N=C(c2ccc(Cl)cc2)c2c(sc(C)c2C)-n2c(C)nnc21 [Example 11, 4-(4-chlorophenyl)-2,3,9-trimethyl-6-(2-methylbenzyl)-6H-thieno[2,3-e][1,2,4]triazolo[3,4-c][1,2,4]triazepine] | 100% | 291 nM
Cc1sc2c(c1C)C(c1ccc(Cl)cc1)=NN(CCc1ccccc1)c1nnc(C)n1-2 [Example 19, 4-(4-chlorophenyl)-2,3,9-trimethyl-6-phenethyl-6H-thieno[2,3-e][1,2,4]triazolo[3,4-c][1,2,4]triazepine] | 96.6% | 1320 nM
Cc1sc2c(c1C)C(c1ccc(Cl)cc1)=NN(Cc1ncccc1Cl)c1nnc(C)n1-2 [Example 24, 4-(4-chlorophenyl)-6-((3-chloropyridin-2-yl)methyl)-2,3,9-trimethyl-6H-thieno[2,3-e][1,2,4]triazolo[3,4-c][1,2,4]triazepine] | 100% | 1050 nM
Cc1sc2c(c1C)C(c1ccc(N)cc1)=NN(Cc1cncc(O)c1)c1nnc(C)n1-2 [Example 103, 5-((4-(4-aminophenyl)-2,3,9-trimethyl-6H-thieno[2,3-e][1,2,4]triazolo[3,4-c][1,2,4]triazepin-6-yl)methyl)pyridin-3-ol] |  | 289 nM
Cc1sc2c(c1C)C(c1ccc(N)cc1)=NN(Cc1ccc(O)nc1)c1nnc(C)n1-2 [Example 104] |  | 3940 nM
Cc1sc2c(c1C)C(c1ccc(N)cc1)=NN(Cc1cccnc1)c1nnc(CO)n1-2 [Example 105, (4-(4-aminophenyl)-2,3-dimethyl-6-(pyridin-3-ylmethyl)-6H-thieno[2,3-e][1,2,4]triazolo[3,4-c][1,2,4]triazepin-9-yl)methanol] |  | 4830 nM
Cc1c(CO)sc2c1C(c1ccc(N)cc1)=NN(Cc1cccnc1)c1nnc(C)n1-2 [Example 106, (4-(4-aminophenyl)-3,9-dimethyl-6-(pyridin-3-ylmethyl)-6H-thieno[2,3-e][1,2,4]triazolo[3,4-c][1,2,4]triazepin-2-yl)methanol] |  | 1840 nM
Cc1sc2c(c1CO)C(c1ccc(N)cc1)=NN(Cc1cccnc1)c1nnc(C)n1-2 [Example 107, (4-(4-aminophenyl)-2,9-dimethyl-6-(pyridin-3-ylmethyl)-6H-thieno[2,3-e][1,2,4]triazolo[3,4-c][1,2,4]triazepin-3-yl)methanol] |  | 2320 nM
Cc1nnc2n1-c1scc(CCO)c1C(c1ccc(N)cc1)=NN2Cc1cccnc1 [Example 108, 2-(4-(4-aminophenyl)-9-methyl-6-(pyridin-3-ylmethyl)-6H-thieno[2,3-e][1,2,4]triazolo[3,4-c][1,2,4]triazepin-3-yl)ethane-1-ol] |  | 4020 nM

These reach a lower IC50 (NF-κB). Values come first.

inhibition at 10 µM [1] | IC50 (NF-κB) | Compound
100% | 276 nM | Cc1sc2c(c1C)C(c1ccc(Cl)cc1)=NN(Cc1ccc(C(F)(F)F)cc1)c1nnc(C)n1-2 [Example 14, 4-(4-chlorophenyl)-2,3,9-trimethyl-6-(4-(trifluoromethyl)benzyl)-6H-thieno[2,3-e][1,2,4]triazolo[3,4-c][1,2,4]triazepine]
100% | 233 nM | Cc1ccc(CN2N=C(c3ccc(Cl)cc3)c3c(sc(C)c3C)-n3c(C)nnc32)cc1 [Example 13, 4-(4-chlorophenyl)-2,3,9-trimethyl-6-(4-methylbenzyl)-6H-thieno[2,3-e][1,2,4]triazolo[3,4-c][1,2,4]triazepine]
100% | 192 nM | Cc1sc2c(c1C)C(c1ccc(Cl)cc1)=NN(Cc1ccccc1Cl)c1nnc(C)n1-2 [Example 10, 6-(2-chlorobenzyl)-4-(4-chlorophenyl)-2,3,9-trimethyl-6H-thieno[2,3-e][1,2,4]triazolo[3,4-c][1,2,4]triazepine]
100% | 158 nM | Cc1sc2c(c1C)C(c1ccc(Cl)cc1)=NN(Cc1ncccc1F)c1nnc(C)n1-2 [Example 23, 4-(4-chlorophenyl)-6-((3-fluoropyridin-2-yl)methyl)-2,3,9-trimethyl-6H-thieno[2,3-e][1,2,4]triazolo[3,4-c][1,2,4]triazepine]
100% | 144 nM | Cc1sc2c(c1C)C(c1ccc(Cl)cc1)=NN(Cc1cccc(C(F)(F)F)c1)c1nnc(C)n1-2 [Example 18, 4-(4-chlorophenyl)-2,3,9-trimethyl-6-(3-(trifluoromethyl)benzyl)-6H-thieno[2,3-e][1,2,4]triazolo[3,4-c][1,2,4]triazepine]
100% | 104 nM | Cc1sc2c(c1C)C(c1ccc(Cl)cc1)=NN(Cc1ccccc1F)c1nnc(C)n1-2 [Example 8, 4-(4-chlorophenyl)-6-(2-fluorobenzyl)-2,3,9-trimethyl-6H-thieno[2,3-e][1,2,4]triazolo[3,4-c][1,2,4]triazepine]
100% | 86.4 nM | COc1cccc(CN2N=C(c3ccc(Cl)cc3)c3c(sc(C)c3C)-n3c(C)nnc32)c1 [Example 6, 4-(4-chlorophenyl)-6-(3-methoxybenzyl)-2,3,9-trimethyl-6H-thieno[2,3-e][1,2,4]triazolo[3,4-c][1,2,4]triazepine]
100% | 77.5 nM | Cc1sc2c(c1C)C(c1ccc(Cl)cc1)=NN(Cc1cccc(Cl)c1)c1nnc(C)n1-2 [Example 16, 6-(3-chlorobenzyl)-4-(4-chlorophenyl)-2,3,9-trimethyl-6H-thieno[2,3-e][1,2,4]triazolo[3,4-c][1,2,4]triazepine]
100% | 51.9 nM | Cc1sc2c(c1C)C(c1ccc(Cl)cc1)=NN(Cc1ccccc1)c1nnc(C)n1-2 [Example 3, 6-benzyl-4-(4-chlorophenyl)-2,3,9-trimethyl-6H-thieno[2,3-e][1,2,4]triazolo[3,4-c][1,2,4]triazepine]
100% | 32.1 nM | Cc1cccc(CN2N=C(c3ccc(Cl)cc3)c3c(sc(C)c3C)-n3c(C)nnc32)c1 [Example 12, 4-(4-chlorophenyl)-2,3,9-trimethyl-6-(3-methylbenzyl)-6H-thieno[2,3-e][1,2,4]triazolo[3,4-c][1,2,4]triazepine]
100% | 30.3 nM | Cc1sc2c(c1C)C(c1ccc(Cl)cc1)=NN(Cc1cccc(F)n1)c1nnc(C)n1-2 [Example 21, 4-(4-chlorophenyl)-6-((6-fluoropyridin-2-yl)methyl)-2,3,9-trimethyl-6H-thieno[2,3-e][1,2,4]triazolo[3,4-c][1,2,4]triazepine]
100% | 17.6 nM | Cc1sc2c(c1C)C(c1ccc(Cl)cc1)=NN(Cc1cccc(F)c1)c1nnc(C)n1-2 [Example 9, 4-(4-chlorophenyl)-6-(3-fluorobenzyl)-2,3,9-trimethyl-6H-thieno[2,3-e][1,2,4]triazolo[3,4-c][1,2,4]triazepine]
100% | 12.3 nM | Cc1sc2c(c1C)C(c1ccc(Cl)cc1)=NN(Cc1ccc(F)nc1)c1nnc(C)n1-2 [Example 26, 4-(4-chlorophenyl)-6-((6-fluoropyridin-3-yl)methyl)-2,3,9-trimethyl-6H-thieno[2,3-e][1,2,4]triazolo[3,4-c][1,2,4]triazepine]
